Source: ChEMBL document CHEMBL5528010, “The discovery of aryl-2-nitroethyl triamino pyrimidines as anti-Trypanosoma brucei agents” (Eur J Med Chem, 2024)

Tested on: not listed separately
Assay: Half life in BALB/c mouse at 20 mg/kg, po measured upto 24 hrs by LC-MS/MS analysis
Type: ADME, organism-based
Conditions: in vivo

Row | half-life | Structure (SMILES)
1 | 3 h | Nc1nc(N)c(C(C[N+](=O)[O-])c2ccc(OCc3ccc(Cl)c(Cl)c3)cc2)c(N)n1 (stereo not given)
2 | 2.4 h | Nc1nc(N)c(C(C[N+](=O)[O-])c2ccccc2OCc2cccc(Cl)c2)c(N)n1 (stereo not given)

Tested on: not listed separately
Assay: Cmax in BALB/c mouse at 20 mg/kg, po measured upto 24 hrs by LC-MS/MS analysis
Type: ADME, organism-based
Conditions: in vivo

Row | Cmax | Structure (SMILES)
3 | 63 ng/mL | Nc1nc(N)c(C(C[N+](=O)[O-])c2ccc(OCc3ccc(Cl)c(Cl)c3)cc2)c(N)n1 (stereo not given)
4 | 446 ng/mL | Nc1nc(N)c(C(C[N+](=O)[O-])c2ccccc2OCc2cccc(Cl)c2)c(N)n1 (stereo not given)

Tested on: not listed separately
Assay: Selectivity index, ratio of CC50 for human THP-1 cells to EC50 for bloodstream form Trypanosoma brucei
Type: toxicity
Conditions: read-out: Ratio CC50/EC50

Row | Structure (SMILES) | selectivity ratio
5 | Nc1nc(N)c(C(C[N+](=O)[O-])c2ccc(OCc3ccc(Cl)c(Cl)c3)cc2)c(N)n1 (stereo not given) | 147
6 | Nc1nc(N)c(C(C[N+](=O)[O-])c2ccccc2OCc2cccc(Cl)c2)c(N)n1 (stereo not given) | 31

Tested on: Leishmania infantum
Assay: Antiparasitic activity against Leishmania infantum intracellular amastigotes MHOM/BR/1972/BH46 infected in human THP-1 cells assessed as inhibition of parasitic growth at 50 uM pre-infected for 24 hrs followed by compound addition and measured after 48 hrs relative to control
Type: functional
Conditions: MHOM/BR/1972/BH46, THP-1

Row | Structure (SMILES) | inhibition at 50 µM
7 | Nc1nc(N)c(C(C[N+](=O)[O-])c2ccc(OCc3ccc(Cl)c(Cl)c3)cc2)c(N)n1 (stereo not given) | 11.4%
8 | Nc1nc(N)c(C(C[N+](=O)[O-])c2ccccc2OCc2cccc(Cl)c2)c(N)n1 (stereo not given) | 61%

Tested on: not listed separately
Assay: Inhibition of N-terminal his 6 tagged recombinant Trypanosoma brucei PTR1 expressed in Escherichia coli BL21 (DE3) cells preincubated for 10 mins followed by NADPH addition and measured after 10 to 50 mins by multilabel plate reader method
Type: cell-based
Conditions: not given

Row | Structure (SMILES) | IC50
9 | Nc1nc(N)c(C(C[N+](=O)[O-])c2ccc(OCc3ccc(Cl)c(Cl)c3)cc2)c(N)n1 (stereo not given) | 0.22 µM
10 | Nc1nc(N)c(C(C[N+](=O)[O-])c2ccccc2OCc2cccc(Cl)c2)c(N)n1 (stereo not given) | 0.6 µM

Tested on: not listed separately
Assay: Tmax in BALB/c mouse at 20 mg/kg, po measured upto 24 hrs by LC-MS/MS analysis
Type: ADME, organism-based
Conditions: in vivo

Row | Tmax | Structure (SMILES)
11 | 2 h | Nc1nc(N)c(C(C[N+](=O)[O-])c2ccc(OCc3ccc(Cl)c(Cl)c3)cc2)c(N)n1 (stereo not given)
12 | 0.5 h | Nc1nc(N)c(C(C[N+](=O)[O-])c2ccccc2OCc2cccc(Cl)c2)c(N)n1 (stereo not given)

Target: T1, Pteridine reductase 1 (Leishmania major, UniProt Q01782)
T1 sequence (Q01782 whole entry): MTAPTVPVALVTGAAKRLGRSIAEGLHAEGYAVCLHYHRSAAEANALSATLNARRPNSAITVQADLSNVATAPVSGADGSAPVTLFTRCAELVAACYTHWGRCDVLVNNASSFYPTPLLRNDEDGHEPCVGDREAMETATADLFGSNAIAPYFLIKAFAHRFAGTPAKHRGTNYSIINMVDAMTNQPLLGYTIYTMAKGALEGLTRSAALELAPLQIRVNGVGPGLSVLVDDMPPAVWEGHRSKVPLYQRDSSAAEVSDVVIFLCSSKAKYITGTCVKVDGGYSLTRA
Assay: Inhibition of N-terminal his 6 tagged recombinant Leishmania major PTR1 expressed in Escherichia coli BL21 (DE3) cells preincubated for 10 mins followed by NADPH addition and measured after 10 to 50 mins by multilabel plate reader method
Conditions: not given

Row | IC50 | Structure (SMILES)
13 | 49.7 µM | Nc1nc(N)c(C(C[N+](=O)[O-])c2ccc(OCc3ccc(Cl)c(Cl)c3)cc2)c(N)n1 (stereo not given)
14 | 51.3 µM | Nc1nc(N)c(C(C[N+](=O)[O-])c2ccccc2OCc2cccc(Cl)c2)c(N)n1 (stereo not given)

Tested on: THP-1
Assay: Cytotoxicity against human THP-1 cells assessed as reduction in cell viability measured after 72 hrs by MTT assay
Type: functional
Conditions: not given

Row | Structure (SMILES) | CC50
15 | Nc1nc(N)c(C(C[N+](=O)[O-])c2ccc(OCc3ccc(Cl)c(Cl)c3)cc2)c(N)n1 (stereo not given) | 50 µM
16 | Nc1nc(N)c(C(C[N+](=O)[O-])c2ccccc2OCc2cccc(Cl)c2)c(N)n1 (stereo not given) | 12.5 µM

Tested on: not listed separately
Assay: AUC last in BALB/c mouse at 20 mg/kg, po measured upto 24 hrs by LC-MS/MS analysis
Type: ADME, organism-based
Conditions: in vivo

Row | AUC(0-t) at 24 h | Structure (SMILES)
17 | 435 ng·h/mL | Nc1nc(N)c(C(C[N+](=O)[O-])c2ccc(OCc3ccc(Cl)c(Cl)c3)cc2)c(N)n1 (stereo not given)
18 | 1820 ng·h/mL | Nc1nc(N)c(C(C[N+](=O)[O-])c2ccccc2OCc2cccc(Cl)c2)c(N)n1 (stereo not given)

Tested on: Trypanosoma brucei
Assay: Antiparasitic activity against blood stream form Trypanosoma brucei assessed as parasitic growth inhibition incubated for 72 hrs by resazurin dye based fluorescence analysis
Type: functional, organism-based
Conditions: not given

Row | EC50 | Structure (SMILES)
19 | 0.34 µM | Nc1nc(N)c(C(C[N+](=O)[O-])c2ccc(OCc3ccc(Cl)c(Cl)c3)cc2)c(N)n1 (stereo not given)
20 | 0.4 µM | Nc1nc(N)c(C(C[N+](=O)[O-])c2ccccc2OCc2cccc(Cl)c2)c(N)n1 (stereo not given)
